# Assay results published in patent publication US20030190377A1, “Novel use of the extract of processed Panax genus plant and saponin compound isolated therefrom” (Ginseng Science Inc., priority 2002, published 2003).
# Where two headings read alike, the source gives them in different places.
# Tests used:
# Helicobacter pylori = assay: Inhibitory effect on proliferation of Helicobacter pylori (MIC, Brucella agar); assay type: cell-based
# H+/K+-ATPase = H+/K+-ATPase (Rattus norvegicus, UniProt P09626); assay: H+/K+-ATPase activity inhibition test; conditions: for IC50 for H+/K+-ATPase: stomach enzyme, pre-incubated 37° C. 30 minutes, pH 7.4
# H+/K+-ATPase, sequence (P09626 whole entry): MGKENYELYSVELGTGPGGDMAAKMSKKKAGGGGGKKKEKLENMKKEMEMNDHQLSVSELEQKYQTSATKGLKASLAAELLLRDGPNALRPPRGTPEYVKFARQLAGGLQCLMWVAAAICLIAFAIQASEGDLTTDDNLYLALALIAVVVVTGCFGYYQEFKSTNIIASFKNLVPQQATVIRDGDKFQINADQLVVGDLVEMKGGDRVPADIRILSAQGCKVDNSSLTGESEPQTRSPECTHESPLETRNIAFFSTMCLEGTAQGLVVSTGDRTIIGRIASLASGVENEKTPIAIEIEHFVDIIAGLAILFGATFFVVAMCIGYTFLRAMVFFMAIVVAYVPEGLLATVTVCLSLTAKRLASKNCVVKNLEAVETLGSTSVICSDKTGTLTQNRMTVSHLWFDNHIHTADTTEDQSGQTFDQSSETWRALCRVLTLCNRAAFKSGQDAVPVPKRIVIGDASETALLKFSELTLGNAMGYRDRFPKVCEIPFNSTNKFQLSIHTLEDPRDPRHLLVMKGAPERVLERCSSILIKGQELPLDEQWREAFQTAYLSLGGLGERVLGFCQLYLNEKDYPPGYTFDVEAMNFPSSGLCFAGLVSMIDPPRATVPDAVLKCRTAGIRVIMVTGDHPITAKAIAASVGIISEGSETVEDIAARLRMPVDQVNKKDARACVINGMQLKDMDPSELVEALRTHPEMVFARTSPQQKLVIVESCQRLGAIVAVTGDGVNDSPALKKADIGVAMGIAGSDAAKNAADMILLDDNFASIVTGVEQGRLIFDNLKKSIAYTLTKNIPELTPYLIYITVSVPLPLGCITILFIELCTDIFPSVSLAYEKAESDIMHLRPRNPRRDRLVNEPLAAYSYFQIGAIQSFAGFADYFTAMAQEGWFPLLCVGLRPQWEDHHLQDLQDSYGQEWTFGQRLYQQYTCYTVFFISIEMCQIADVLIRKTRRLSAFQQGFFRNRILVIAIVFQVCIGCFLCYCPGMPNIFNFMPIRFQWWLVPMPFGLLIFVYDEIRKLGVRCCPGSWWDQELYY
# H+/K+-ATPase, sequence (P18598 whole entry partner): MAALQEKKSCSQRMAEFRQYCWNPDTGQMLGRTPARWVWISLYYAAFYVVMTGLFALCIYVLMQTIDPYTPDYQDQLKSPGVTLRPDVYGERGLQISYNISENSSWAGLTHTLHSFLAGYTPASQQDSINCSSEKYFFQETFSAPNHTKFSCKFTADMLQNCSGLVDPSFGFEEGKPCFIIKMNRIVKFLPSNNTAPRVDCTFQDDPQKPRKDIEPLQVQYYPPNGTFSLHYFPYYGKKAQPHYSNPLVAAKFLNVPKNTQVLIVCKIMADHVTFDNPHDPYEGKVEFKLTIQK
# [1] = H. pylori strain ATCC 43504, 37° C., 3 days
# [2] = H. pylori strain Clinical 4, 37° C., 3 days
# [3] = H. pylori strain Clinical 82516, 37° C., 3 days
# [4] = H. pylori strain Clinical 82548, 37° C., 3 days
# [5] = H. pylori strain NCTC 11637, 37° C., 3 days
# [6] = H. pylori strain NCTC 11638, 37° C., 3 days
Compound,MIC ATCC 43504 (Helicobacter pylori; [1]) [mg/L],MIC Clinical 4 (Helicobacter pylori; [2]) [mg/L],MIC Clinical 82516 (Helicobacter pylori; [3]) [mg/L],MIC Clinical 82548 (Helicobacter pylori; [4]) [mg/L],MIC NCTC 11637 (Helicobacter pylori; [5]) [mg/L],MIC NCTC 11638 (Helicobacter pylori; [6]) [mg/L],IC50 for H+/K+-ATPase (H+/K+-ATPase) [mg/L],also measured
CC(C)=CCC[C@](C)(O)[C@H]1CC[C@]2(C)[C@@H]1[C@H](O)C[C@@H]1[C@@]3(C)CC[C@H](O[C@@H]4O[C@H](CO)[C@@H](O)[C@H](O)[C@H]4O[C@@H]4O[C@H](CO)[C@@H](O)[C@H](O)[C@H]4O)C(C)(C)[C@@H]3CC[C@]12C [20(R)-ginsenoside Rg3],200,200,200,200,200,200,700,
CC(C)=CCC[C@@](C)(O)[C@H]1CC[C@]2(C)[C@@H]1[C@H](O)C[C@@H]1[C@@]3(C)CC[C@H](O[C@@H]4O[C@H](CO)[C@@H](O)[C@H](O)[C@H]4O)C(C)(C)[C@@H]3CC[C@]12C [20(R)-ginsenoside Rh2],100,100,100,100,100,100,500,
CC(C)=CCC[C@@](C)(O)[C@H]1CC[C@]2(C)[C@@H]1[C@H](O)C[C@@H]1[C@@]3(C)CC[C@H](O)C(C)(C)[C@@H]3CC[C@]12C [20(R)-protopanaxadiol],50,50,50,50,50,50,,
CC(C)=CCC[C@](C)(O)[C@H]1CC[C@]2(C)[C@@H]1[C@H](O)C[C@@H]1[C@@]3(C)CC[C@H](O[C@@H]4O[C@H](CO)[C@@H](O)[C@H](O)[C@H]4O[C@@H]4O[C@H](CO)[C@@H](O)[C@H](O)[C@H]4O)C(C)(C)[C@@H]3CC[C@]12C [20(S)-ginsenoside Rg3],200,200,200,200,200,200,600,
CC(C)=CCC[C@](C)(O)[C@H]1CC[C@]2(C)[C@@H]1[C@H](O)C[C@@H]1[C@@]3(C)CC[C@H](O[C@@H]4O[C@H](CO)[C@@H](O)[C@H](O)[C@H]4O)C(C)(C)[C@@H]3CC[C@]12C [20(S)-ginsenoside Rh2],100,100,100,100,100,100,500,
CC(C)=CCC[C@](C)(O)[C@H]1CC[C@]2(C)[C@@H]1[C@H](O)C[C@@H]1[C@@]3(C)CC[C@H](O)C(C)(C)[C@@H]3CC[C@]12C [20(S)-protopanaxadiol],50,50,50,50,50,50,>1000,inhibiting activity of proliferation of Helicobacter strain (Helicobacter pylori; result in words): potent inhibiting activity
"CC(C)=CCC[C@](C)(O[C@@H]1O[C@H](CO)[C@@H](O)[C@H](O)[C@H]1O)[C@H]1CC[C@]2(C)[C@@H]1[C@H](O)C[C@@H]1[C@@]3(C)CC[C@H](O)C(C)(C)[C@@H]3CC[C@]12C [Compound K, reference compound]",>100,>100,>100,>100,>100,>100,>1000,
CC(C)=CCC[C@](C)(O[C@@H]1O[C@H](CO[C@@H]2O[C@H](CO)[C@@H](O)[C@H](O)[C@H]2O)[C@@H](O)[C@H](O)[C@H]1O)[C@H]1CC[C@]2(C)[C@@H]1[C@H](O)C[C@@H]1[C@@]3(C)CC[C@H](O[C@@H]4O[C@H](CO)[C@@H](O)[C@H](O)[C@H]4O[C@@H]4O[C@H](CO)[C@@H](O)[C@H](O)[C@H]4O)C(C)(C)[C@@H]3CC[C@]12C [Ginsenoside Rb1],>100,>100,>100,>100,>100,>100,>1000,
"CC(C)=CCC[C@](C)(O[C@@H]1O[C@H](CO[C@@H]2OC[C@H](O)[C@H](O)[C@H]2O)[C@@H](O)[C@H](O)[C@H]1O)[C@H]1CC[C@]2(C)[C@@H]1[C@H](O)C[C@@H]1[C@@]3(C)CC[C@H](O[C@@H]4O[C@H](CO)[C@@H](O)[C@H](O)[C@H]4O[C@@H]4O[C@H](CO)[C@@H](O)[C@H](O)[C@H]4O)C(C)(C)[C@@H]3CC[C@]12C [Ginsenoside Rb2, reference compound]",>100,>100,>100,>100,>100,>100,>1000,
CC(C)=CCC[C@](C)(O[C@@H]1O[C@H](CO[C@@H]2O[C@@H](CO)[C@H](O)[C@H]2O)[C@@H](O)[C@H](O)[C@H]1O)[C@H]1CC[C@]2(C)[C@@H]1[C@H](O)C[C@@H]1[C@@]3(C)CC[C@H](O[C@@H]4O[C@H](CO)[C@@H](O)[C@H](O)[C@H]4O[C@@H]4O[C@H](CO)[C@@H](O)[C@H](O)[C@H]4O)C(C)(C)[C@@H]3CC[C@]12C [Ginsenoside Rc],,,,,,,,"MIC (Helicobacter pylori; Helicobacter pylori, 72 h, H. pylori strain Clinical 4, 37° C., 3 days, read-out: MIC Clinical 4): > 100 mg/L; MIC (Helicobacter pylori; Helicobacter pylori, 72 h, H. pylori strain Clinical 82516, 37° C., 3 days, read-out: MIC Clinical 82516): > 100 mg/L; MIC (Helicobacter pylori; Helicobacter pylori, 72 h, H. pylori strain Clinical 82548, 37° C., 3 days, read-out: MIC Clinical 82548): > 100 mg/L; MIC (Helicobacter pylori; Helicobacter pylori, ATCC43504, 72 h, H. pylori strain ATCC 43504, 37° C., 3 days, read-out: MIC ATCC 43504): > 100 mg/L; MIC (Helicobacter pylori; Helicobacter pylori, NCTC11637, 72 h, H. pylori strain NCTC 11637, 37° C., 3 days, read-out: MIC NCTC 11637): > 100 mg/L; MIC (Helicobacter pylori; Helicobacter pylori, NCTC11638, 72 h, H. pylori strain NCTC 11638, 37° C., 3 days, read-out: MIC NCTC 11638): > 100 mg/L; IC50 (H+/K+-ATPase): > 927 µM"
CC(C)=CCC[C@](C)(O)[C@H]1CC[C@]2(C)[C@@H]1[C@H](O)C[C@@H]1[C@@]3(C)CC[C@H](O)C(C)(C)[C@@H]3[C@@H](O[C@@H]3O[C@H](CO)[C@@H](O)[C@H](O)[C@H]3O)C[C@]12C [Ginsenoside Rh1],>100,>100,>100,>100,>100,>100,>1000,
"COc1ccc2[nH]c([S+]([O-])Cc3ncc(C)c(OC)c3C)nc2c1 (centres unmarked) [Omeprazole, reference compound]",,,,,,,,IC50 (H+/K+-ATPase): 57.9 µM
CC(C)=CCC[C@](C)(O)[C@H]1CC[C@]2(C)[C@@H]1[C@H](O)C[C@@H]1[C@@]3(C)CC[C@H](O)C(C)(C)[C@@H]3[C@@H](O)C[C@]12C [Protopanaxatriol],50,50,50,50,50,50,,
CC1(C)CCC[C@](C)([C@H]2CC[C@]3(C)[C@@H]2[C@H](O)C[C@@H]2[C@@]4(C)CC[C@H](O)C(C)(C)[C@@H]4[C@@H](O)C[C@]23C)O1 [panaxatriol],,,,,,,,"MIC (Helicobacter pylori; Helicobacter pylori, strain not specified, read-out: MIC): 50 mg/L"
CC(C)=CCC[C@@](C)(O)[C@H]1CC[C@]2(C)[C@@H]1[C@H](O)C[C@@H]1[C@@]3(C)CC[C@H](O)C(C)(C)[C@@H]3CC[C@]12C [protopanaxadiol],,,,,,,,MIC (Helicobacter pylori; strain not specified): 50 mg/L
